Experimental data from article PMC6974402 (Nature, 2019).

How the values were obtained:
SAP1 = target: T1, SAP1 (Anopheles gambiae, UniProt Q7Q3U7); test: 1-NPN fluorescence displacement; format: binding
T1 sequence (Q7Q3U7 18-127): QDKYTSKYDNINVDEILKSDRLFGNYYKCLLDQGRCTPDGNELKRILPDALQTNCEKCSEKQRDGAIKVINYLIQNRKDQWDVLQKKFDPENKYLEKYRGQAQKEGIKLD

SAP3 = target: T2, SAP3 (Anopheles gambiae, UniProt Q6H8Z2); test: 1-NPN fluorescence displacement; format: binding
T2 sequence (Q6H8Z2 18-126): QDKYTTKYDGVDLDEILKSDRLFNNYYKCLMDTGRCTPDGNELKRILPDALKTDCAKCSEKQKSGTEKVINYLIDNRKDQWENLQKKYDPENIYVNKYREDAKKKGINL

Structure (SMILES) | IC50 (SAP1) [µM] | IC50 (SAP3) [µM]
CC1(C)[C@H](C(=O)O[C@H](C#N)c2cccc(Oc3ccccc3)c2)[C@@H]1C=C(Br)Br [deltamethrin] | > 10 | > 10
CC1(C)C(C=C(Cl)Cl)C1C(=O)OC(C#N)c1cccc(Oc2ccccc2)c1 (stereo not drawn) [α-cypermethrin] | 9.02 | –
